Assays:
THP1 cells = assay: AML xenograft survival model; format: in vivo, BALB/c Rag-2/JAK3 double-deficient (BRJ) mice; settings: 20 days; for Median Survival Time: Figure 7B, HP-β-CyD 2086.5 mg/kg i.p. twice a day, FA-HP-β-CyD 249 mg/kg i.p. twice a day, Ara-C 100 mg/kg i.p., n = 6
Method: (§1) BALB/c Rag-2/JAK3 double-deficient (BRJ) mice were housed in a specific pathogen-free barrier facility and used for the xenograft transplantation experiments. All animal experiments were approved by the Institutional Review Board of Saga University and conducted in accordance with the institutional guidelines of animal care of Saga University.
(§2) HL-60 cells or THP-1 cells were injected intravenously into BRJ mice. After 72 h, mice were injected intraperitoneally with 200 μL of vehicle, FA-HP-β-CyD (15 mM, 249 mg/kg), or HP-β-CyD (150 mM, 2086.5 mg/kg) for 20 consecutive days, and survival was monitored daily. Ara-C (100 mg/kg) was injected intraperitoneally for 5 consecutive days from 72 h after transplantation. Venetoclax (25 mg/kg) was orally administered for 20 consecutive days from 72 h after transplantation. Chimerism of human leukemic cells in the BM was determined by flow cytometry after double staining with FITC-conjugated anti-human CD45 (BD Bioscience) and PE/Cy7-conjugated anti-mouse CD45 (BioLegend) antibodies. All surgery was performed under sodium pentobarbital anesthesia to minimize pain. Mice were euthanized with ether when they became moribund or were unable to obtain food or water, as recommended by Saga University institutional guidelines. Survival data were analyzed using a log-rank nonparametric test and presented as Kaplan–Meier survival curves (n = 6 for each group).

HL-60 cells = assay: AML xenograft survival model; format: in vivo, BALB/c Rag-2/JAK3 double-deficient (BRJ) mice; settings: HL-60 xenograft, 20 days; for Median Survival Time: HP-β-CyD 2086.5 mg/kg i.p. twice a day, FA-HP-β-CyD 249 mg/kg i.p. twice a day, n = 6
Method: as §1, §2

SKM-1 = assay: modified MTT assay (Cell Counting Kit-8), cell proliferation; format: cell-based, human
Method: (§3) The trypan blue dye exclusion method was used to evaluate cell viability. Cells (HL-60, THP1, SKM1 and Kasumi1 cells) were seeded in flat-bottomed 96-well plates at a density of 1 × 10^4 cells in 100 µL medium per well and incubated with FA-HP-β-CyD (0, 0,1, 0.25, 0.5, 0.75, 1 mM) or HP-β-CyD (0, 1, 2.5, 5, 10 mM) for 72 h. Then, viable cells were counted. Cell proliferation was evaluated by a modified MTT assay using Cell Counting Kit-8 (Dojindo Molecular Technologies, Kumamoto, Japan), as previously described. AML cells were cultured in 96-well plates at a density of 1 × 10^4 cells in 100 µL medium per well and incubated with FA-HP-β-CyD or HP-β-CyD for 72 h. The half-maximal inhibitory concentration values (IC50) were determined by non-linear regression using CalcuSyn software version 1.1.1 (Biosoft, Cambridge, UK), as previously described. After obtaining IC50 values for each agent, the antileukemic activity of FA-HP-β-CyD plus cytosine arabinoside (Ara-C) or Venetoclax was evaluated, as previously described. […] CalcuSyn was used to calculate the fraction affected (Fa, in which a value of 0.25 indicates […]) and the CI. This method is capable of quantifying synergistic (CI < 1) and antagonistic (CI > 1) effects at different dose and effect levels.

HL-60 [1] = assay: as above; format: cell-based, human
Method: as §3

THP-1 = assay: as above; format: cell-based, human
Method: as §3

THP1 [2] = assay: autophagosome formation (DAPGreen); format: cell-based, human; settings: THP1, 1 or 10 mM, 2 h
Method: (§4) Autophagosome formation was evaluated using the DAPGreen-Autophagy Detection Kit (Dojindo Molecular Technologies). HL-60 and THP1 cells were cultured overnight in 6-well plates at a density of 5 × 10^5 or 1 × 10^6 cells. The cells were then washed once with culture medium and incubated with DAPGreen working solution at 37 °C for 30 min. After the cells were washed twice, CyDs (1 mM, 10 mM) were added to the wells and incubated for 2 h. The samples were analyzed using a flow cytometer (FACS Canto II) or a fluorescence microscope (Carl Zeiss, Jena, Germany).

HL-60 [3] = assay: autophagosome formation (DAPGreen); format: cell-based, human; settings: HL-60, 1 or 10 mM, 2 h
Method: as §4

THP1 [4] = assay: cell viability with autophagy inhibitors (Cell Counting Kit-8); format: cell-based, human; settings: 1 mM FA-HP-β-CyD or 10 mM HP-β-CyD, chloroquine 20 μM, LY294002 50 μM, bafilomycin A1 1 nM
Method: (§5) HL-60 and THP1 cells (2 × 10^5 cells in 100 µL of RPMI-1640 medium per well) were seeded in flat-bottomed 96-well plates (Greiner Labortechnik, Hamburg, Germany) and treated with both 1 mM of FA-HP-β-CyD and 10 mM of HP-β-CyD at 37 °C for 2 h. The cells were then pretreated for 24 h with the autophagy inhibitors chloroquine (20 µM), LY294002 (50 μM; Fujifilm Wako Pure Chemicals Co., Ltd., Osaka, Japan), or bafilomycin A1 (1 nM; Funakoshi, Tokyo, Japan). Cell proliferation was assessed using Cell Counting Kit-8.

HL-60 [5] = assay: as above; format: cell-based, human; settings: 1 mM FA-HP-β-CyD or 10 mM HP-β-CyD, chloroquine 20 μM, LY294002 50 μM, bafilomycin A1 1 nM
Method: as §5

AML cell lines [6] = assay: trypan blue dye exclusion, cell viability; format: cell-based, human; settings: 72 h; FA-HP-β-CyD up to 1 mM, HP-β-CyD up to 10 mM
Method: (§6) The trypan blue dye exclusion method was used to evaluate cell viability. Cells (HL-60, THP1, SKM1 and Kasumi1 cells) were seeded in flat-bottomed 96-well plates at a density of 1 × 10^4 cells in 100 µL medium per well and incubated with FA-HP-β-CyD (0, 0,1, 0.25, 0.5, 0.75, 1 mM) or HP-β-CyD (0, 1, 2.5, 5, 10 mM) for 72 h. Then, viable cells were counted. Cell proliferation was evaluated by a modified MTT assay using Cell Counting Kit-8 (Dojindo Molecular Technologies, Kumamoto, Japan), as previously described. AML cells were cultured in 96-well plates at a density of 1 × 10^4 cells in 100 µL medium per well and incubated with FA-HP-β-CyD or HP-β-CyD for 72 h. […] This method is capable of quantifying synergistic (CI < 1) and antagonistic (CI > 1) effects at different dose and effect levels.

Kasumi-1 = assay: modified MTT assay (Cell Counting Kit-8), cell proliferation; format: cell-based, human; settings: Kasumi-1, 72 h
Method: as §6

SKM1 = assay: cell cycle analysis (PI, flow cytometry); format: cell-based, human
Method: (§7) Cell cycle analyses of AML cell lines (HL-60, THP1, SKM1, and Kasumi1 cells) were performed as described previously. In brief, 1 × 10^6 cells were treated with the indicated concentrations of CyDs. After 24 h of CyD treatment, cells were collected and fixed with 70% ethanol. Cells were then incubated at room temperature for 30 min with 0.1% Triton X-100/0.5% RNase A and stained with 50 μg/mL PI (BD Biosciences, San Jose, CA, USA). Cellular DNA content was analyzed by flow cytometry, and cell cycle profiles were determined in a FACS CantoII flow cytometer with CellQuest software (version 1.0.6, BD Biosciences).

THP1 [7] = assay: cell cycle analysis (PI, flow cytometry); format: cell-based, human; settings: THP1, 24 h
Method: as §7

HL-60 [8] = assay: cell cycle analysis (PI, flow cytometry); format: cell-based, human; settings: HL-60, 24 h
Method: as §7

Kasumi1 = assay: cell cycle analysis (PI, flow cytometry); format: cell-based, human; settings: Kasumi1, 24 h
Method: as §7

AML cell lines [9] = assay: Annexin V and PI staining, statements over all AML cell lines; format: cell-based, human; settings: for apoptosis induction: four AML cell lines, 72 h
Method: PI and Annexin V (BD Biosciences, San Jose, CA, USA) staining was performed to assess apoptosis, as previously described [53]. Cells were filtered through nylon mesh and assessed using a FACSVerse flow cytometer (BD Biosciences). Data were analyzed using FlowJo software 10.8.2 (Tree Star, Inc., Ashland, OR, USA).

[10] = mouse, in vivo, ip
Method: (§8) At 24 h after the first injection, and at 8 days after the last of seven repeat injections, peripheral blood was collected from the tail vein and analyzed by an automated blood cell counter (Celltacα MEK-6500; NIHON KOHDEN, Tokyo, Japan). Data are presented as the mean ± SEM of three independent experiments.

[11] = peripheral blood cell count after intraperitoneal administration; settings: for Hb / Plt / WBC: seven repeat injections, Day 8
Method: as §8

[12] = test system: normal human bone marrow CD34-positive progenitor cells; assay: methylcellulose colony formation assay; settings: 10 mM HP-β-CyD, 1 mM FA-HP-β-CyD, 1 week of culture
From the text: Human bone marrow CD34 positive cells were purchased from LONZA (Bazel, Switzerland). […] After 1 week of culture, the number of colonies was counted using an inverted microscope. Data represent the mean number of colonies ± SEM (n = 3).

[13] = Figure 7A, Ara-C 100 mg/kg i.p.
[14] = Figure 7C, Venetoclax 25 mg/kg oral gavage daily

## Nc1ccn([C@@H]2O[C@H](CO)[C@@H](O)[C@@H]2O)c(=O)n1 [Ara-C, cytarabine]
THP1 cells
  Median Survival Time: 45.5 days
HL-60 cells; [13]
  Median Survival Time: 34 days
SKM-1; Homo sapiens, SKM-1, SKM1
  IC50: 0.6 µM
HL-60 [1]; Homo sapiens, HL-60
  IC50: 0.495 µM
THP-1; Homo sapiens, THP-1, THP1
  IC50: 7.19 µM

## CC1(C)CCC(CN2CCN(c3ccc(C(=O)NS(=O)(=O)c4ccc(NCC5CCOCC5)c([N+](=O)[O-])c4)c(Oc4cnc5[nH]ccc5c4)c3)CC2)=C(c2ccc(Cl)cc2)C1 [Venetoclax]
HL-60 cells; [14]
  Median Survival Time: 36 days
SKM-1; Homo sapiens, SKM-1, SKM1
  IC50: 1.1 µM
HL-60 [1]; Homo sapiens, HL-60
  IC50: 0.0503 µM
THP-1; Homo sapiens, THP-1, THP1
  IC50: 0.442 µM

## folate-conjugated HP-β-CyD [FA-HP-β-CyD]
THP1 [2]
  number of autophagic vacuoles (DAPGreen fluorescence): increased
HL-60 [3]
  number of autophagic vacuoles (DAPGreen fluorescence): increased
THP1 [4]
  viability in the presence of autophagy inhibitors vs CyD alone: higher than that in the presence of FA-HP-β-CyD alone
HL-60 [5]
  viability in the presence of autophagy inhibitors vs CyD alone: higher than that in the presence of FA-HP-β-CyD alone
AML cell lines [6]
  cell viability (trypan blue): reduced the cell viability of the AML cell lines in a dose-dependent manner
Kasumi-1
  IC50: 300 µM
THP1 cells; 249 mg/kg i.p. b.i.d.
  survival compared with vehicle-injected mice: survived significantly longer
THP1 cells
  Median Survival Time: 50.5 days
HL-60 cells; [13]
  Median Survival Time: 38 days
HL-60 cells; [14]
  Median Survival Time: 35 days
HL-60 cells; 249 mg/kg i.p. b.i.d.
  survival compared with vehicle-injected mice: survived significantly longer
SKM1; SKM1
  effect on cell cycle status (predicted, no experimental data): no change in the cell cycle status was predicted
THP1 [7]
  effect on cell cycle status: no alteration in cell cycle status
HL-60 [8]
  effect on cell cycle status: no alteration in cell cycle status
Kasumi1
  effect on cell cycle status: no alteration in cell cycle status
AML cell lines [9]
  apoptosis induction: triggered early apoptosis in four AML cell lines in a dose-dependent manner
[10]
  adverse effects on white blood cell counts, hemoglobin concentrations, platelet counts: no adverse effects
SKM-1; SKM-1, 72 h
  IC50: 200 µM
HL-60 [1]; HL-60, 72 h
  IC50: 620 µM
THP-1; THP-1, 72 h
  IC50: 320 µM

## CC(O)COC[C@H]1O[C@@H]2O[C@H]3[C@H](O)[C@@H](O)[C@@H](O[C@H]4[C@H](O)[C@@H](O)[C@@H](O[C@H]5[C@H](O)[C@@H](O)[C@@H](O[C@H]6[C@H](O)[C@@H](O)[C@@H](O[C@H]7[C@H](O)[C@@H](O)[C@@H](O[C@H]8[C@H](O)[C@@H](O)[C@@H](O[C@H]1[C@H](O)[C@H]2O)O[C@@H]8COCC(C)O)O[C@@H]7COCC(C)O)O[C@@H]6COCC(C)O)O[C@@H]5COCC(C)O)O[C@@H]4COCC(C)O)O[C@@H]3COCC(C)O (stereo partly drawn) [HP-β-CyD, 2-Hydroxypropyl-β-cyclodextrin]
THP1 [4]
  viability in the presence of autophagy inhibitors vs CyD alone: not affected by the presence or absence of autophagy inhibitors
HL-60 [5]
  viability in the presence of autophagy inhibitors vs CyD alone: not affected by the presence or absence of autophagy inhibitors
AML cell lines [6]
  cell viability (trypan blue): reduced the cell viability of the AML cell lines in a dose-dependent manner
[11]; 8 days after intraperitoneal injection, exception: higher dose of HP-β-CyD (10,000 mg/kg b.i.d.)
  change in blood cell counts compared with vehicle (PBS): no significant change
[11]; HP-β-CyD 2000 mg/kg i.p.
  Hb: 12.4 ± 0.67 g/dL
  Plt: 64.5 ± 2.29 ×10^4/μL
  WBC: 44.7 ± 12.65 ×10^2/μL
[11]; HP-β-CyD 6000 mg/kg i.p.
  Hb: 14.3 ± 0.25 g/dL
  Plt: 60.2 ± 10.69 ×10^4/μL
  WBC: 50.0 ± 2.34 ×10^2/μL
[11]; HP-β-CyD 10,000 mg/kg i.p.
  Plt: 75.5 ± 17.83 ×10^4/μL
[11]; HP-β-CyD 10,000 mg/kg i.p., p < 0.05
  WBC: 30.5 ± 1.65 ×10^2/μL
Kasumi-1; Homo sapiens
  IC50: 3140 µM
THP1 cells
  Median Survival Time: 49.5 days
HL-60 cells; [13]
  Median Survival Time: 38 days
HL-60 cells; [14]
  Median Survival Time: 35 days
SKM1; SKM1, before and after exposure
  effect on cell cycle status: no change in cell cycle
THP1 [7]
  effect on cell cycle status: dose-dependent increase in the percentage of cells in G2/M phase
HL-60 [8]
  effect on cell cycle status: dose-dependent increase in the percentage of cells in G2/M phase
Kasumi1
  effect on cell cycle status: dose-dependent increase in the percentage of cells in G2/M phase
[12]
  colony formation: reduced colony numbers
AML cell lines [9]; 15 mM HP-β-CyD
  mode of cell death at high concentration: appeared to undergo necrosis
AML cell lines [9]
  apoptosis induction: underwent apoptosis
SKM-1; Homo sapiens, SKM-1, 72 h
  IC50: 9440 µM
HL-60 [1]; Homo sapiens, HL-60, 72 h
  IC50: 7660 µM
THP-1; Homo sapiens, THP-1, 72 h
  IC50: 9050 µM

— paper PMC10706821, “Folate-Appended Hydroxypropyl-β-Cyclodextrin Induces Autophagic Cell Death in Acute Myeloid Leukemia Cells” (International Journal of Molecular Sciences, 2023)
